According to the supplement of paper PMC10307832:

Assays:
Experiment in all cases: relative viability (nuclei count vs DMSO), 5 days (fraction); higher = more cells survive
[1] = compound: CC[C@@H]1C(=O)N(C)c2cnc(Nc3ccc(C(=O)NC4CCN(C)CC4)cc3OC)nc2N1C1CCCC1 [BI-2536] + CS(=O)(=O)N1CCN(Cc2cc3nc(-c4cccc5[nH]ncc45)nc(N4CCOCC4)c3s2)CC1 [Pictilisib] (partner 1 µM)
How it was run: (§1)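 Cells from lung cancer lines were seeded into 1536-well plates and, one day later, dosed by pin tool. Treatments were either a single drug or a fixed dose of an anchor drug with five library-drug doses (not always all listed) in √10 steps. After 5 days, nuclei were stained in a one-step fixation (final 0.05% Triton X-100, 1% formaldehyde, 1 ug/ml Hoechst) and counted on 4× images, and relative viability is the treated-to-vehicle nuclei ratio, as the median of duplicate plates.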

[2] = compound: CC1CC(=O)N(C2=CN=C(N=C2N1C3CCCC3)NC4=C(C=C(C=C4)C(=O)NC5CCN(CC5)C)OC)C [NPK76-II-72-1] + Nc1nc2[nH]cc(CCc3ccc(C(=O)N[C@@H](CCC(=O)O)C(=O)O)cc3)c2c(=O)[nH]1 [Pemetrexed] (partner 0.2 µM)
How it was run: as §1

[3] = compound: CC1CC(=O)N(C2=CN=C(N=C2N1C3CCCC3)NC4=C(C=C(C=C4)C(=O)NC5CCN(CC5)C)OC)C [NPK76-II-72-1] + O=C(c1cc(Cc2n[nH]c(=O)c3ccccc23)ccc1F)N1CCN(C(=O)C2CC2)CC1 [Olaparib] (partner 8 µM)
How it was run: as §1

[4] = compound: CC[C@@H]1C(=O)N(C)c2cnc(Nc3ccc(C(=O)NC4CCN(C)CC4)cc3OC)nc2N1C1CCCC1 [BI-2536] + O=C(CCCCCCC(=O)Nc1ccccc1)NO [Vorinostat] (partner 1 µM)
How it was run: as §1

Cell Line	relative viability ([1]; first compound 0.01 µM)	relative viability ([1]; first compound 0.03162 µM)	relative viability ([1]; first compound 0.1 µM)	relative viability ([1]; first compound 0.3162 µM)	relative viability ([1]; first compound 1 µM)	relative viability ([2]; first compound 0.01 µM)	relative viability ([2]; first compound 0.03162 µM)	relative viability ([2]; first compound 0.1 µM)	relative viability ([2]; first compound 0.3162 µM)	relative viability ([2]; first compound 1 µM)	relative viability ([3]; first compound 0.01 µM)	relative viability ([3]; first compound 0.03162 µM)	relative viability ([3]; first compound 0.1 µM)	relative viability ([3]; first compound 0.3162 µM)	relative viability ([3]; first compound 1 µM)	relative viability ([4]; first compound 0.01 µM)	relative viability ([4]; first compound 0.03162 µM)	relative viability ([4]; first compound 0.1 µM)	relative viability ([4]; first compound 0.3162 µM)	relative viability ([4]; first compound 1 µM)
LU99A	0.308	0.301	0.14	0.128	0.138	0.181	0.172	0.205	0.163	0.22	0.259	0.244	0.297	0.253	0.285	0.406	0.405	0.151	0.162	0.163
LXF-289	0.839	0.759	0.126	0.0466	0.0562	0.885	0.976	0.89	0.892	0.855	0.966	1.07	1.05	1.04	1.07	0.855	0.684	0.372	0.0658	0.0936
NCI-H23	0.424	0.272	0.169	0.139	0.14	0.52	0.915	0.597	0.71	0.777	0.228	0.29	0.316	0.255	0.354	0.527	0.555	0.133	0.133	0.157
NCI-H322M	0.303	0.478	0.559	0.519	0.271	0.606	0.566	0.601	0.539	0.595	0.582	0.828	0.623	0.878	0.791	0.926	0.829	0.641	0.45	0.422
NCI-H358	0.338	0.235	0.18	0.14	0.15	0.179	0.186	0.184		0.21	0.58	0.665	0.598		0.686	0.507	0.138	0.0931	0.0884	0.0847
NCI-H441	0.464	0.211	0.138	0.17	0.117	0.293	0.266	0.246	0.274	0.25	0.476	0.598	0.648	0.589	0.573	0.668	0.601	0.263	0.212	0.178
NCI-H460	0.276	0.375	0.33	0.0337	0.0494	0.061	0.0655	0.0657	0.0656	0.0639	0.441	0.457	0.514	0.426	0.455	0.735	1.07	0.119	0.0148	0.014
NCI-H520	0.287	0.232	0.268	0.172	0.162	0.575	0.741	0.427	0.65	0.825	0.294	0.351	0.268	0.385	0.343	0.599	0.25	0.24	0.181	0.179
NCI-H596	0.376	0.293	0.198	0.215	0.205	0.522	0.503	0.485	0.482	0.462	0.771	0.748	0.68	0.704	0.67	0.644	0.664	0.551	0.228	0.206
NCI-H647	0.396	0.376	0.129	0.0762	0.0954	0.189	0.174	0.171	0.172	0.198	0.633	0.48	0.755	0.46	0.661	0.526	0.372	0.236	0.086	0.0837
NCI-H650	0.849	0.584	0.245	0.206	0.15	1.01	0.972	0.879	0.922	0.994	0.391	0.316	0.397	0.354	0.489	0.418	0.479	0.145	0.154	0.128
NCI-H661	0.411	0.37	0.255	0.247	0.217	0.953	0.907	0.893	0.902	0.954	0.697	0.705	0.778	0.666	0.83	0.714	0.323	0.292	0.302	0.306
NCI-H838	0.44	0.393	0.203	0.118	0.122	0.277	0.251	0.263	0.237	0.245	0.712	0.846	0.768	0.738	0.805	0.766	0.668	0.371	0.152	0.141
NCI-H1355	0.477	0.43	0.227	0.161	0.184	1.02	1	0.99	0.972	1.06	0.682	0.755	0.7	0.692	0.841	0.584	0.66	0.37	0.171	0.152
NCI-H1395	0.622	0.524	0.747	0.339	0.357	1.02	0.842	0.972	0.856	0.881	0.459	0.45	0.493	0.477	0.466	0.669	0.431	0.285	0.311	0.356
NCI-H1437	0.428	0.427	0.397	0.098	0.099	0.319	0.305	0.307	0.305	0.352	0.626	0.666	0.613	0.624	0.624	0.809	0.751	0.394	0.301	0.312

Cell Line	relative viability ([1]; first compound 0.01 µM)	relative viability ([1]; first compound 0.03162 µM)	relative viability ([1]; first compound 0.1 µM)	relative viability ([1]; first compound 0.3162 µM)	relative viability ([1]; first compound 1 µM)	relative viability ([2]; first compound 0.01 µM)	relative viability ([2]; first compound 0.03162 µM)	relative viability ([2]; first compound 0.1 µM)	relative viability ([2]; first compound 0.3162 µM)	relative viability ([2]; first compound 1 µM)	relative viability ([3]; first compound 0.01 µM)	relative viability ([3]; first compound 0.03162 µM)	relative viability ([3]; first compound 0.1 µM)	relative viability ([3]; first compound 0.3162 µM)	relative viability ([3]; first compound 1 µM)	relative viability ([4]; first compound 0.01 µM)	relative viability ([4]; first compound 0.03162 µM)	relative viability ([4]; first compound 0.1 µM)	relative viability ([4]; first compound 0.3162 µM)	relative viability ([4]; first compound 1 µM)
NCI-H1650	0.567	0.366	0.146	0.162	0.0901	0.325	0.368	0.345	0.399	0.358	0.661	0.751	0.721	0.82	0.784	0.624	0.555	0.276	0.169	0.142
NCI-H1651	0.524	0.372	0.488	0.0623	0.055	0.534	0.61	0.611	0.527	0.6	0.186	0.168	0.185	0.168	0.171	0.492	0.553	0.328	0.123	0.0939
NCI-H1666	0.558	0.393	0.2	0.221	0.2	0.844	0.802	0.88	0.78	0.917	0.74	0.754	0.735	0.84	0.758	0.984	1.03	1.03	0.504	0.49
NCI-H1734	0.402	0.387	0.347	0.17	0.216	0.428	0.402	0.413	0.418	0.416	0.582	0.72	0.745	0.542	0.667	0.734	0.543	0.17	0.165	0.169
NCI-H1755	0.424	0.399	0.157	0.151	0.175	0.385	0.405	0.464	0.544	0.405	0.858	0.915	0.888	0.827	0.893	0.833	0.595	0.426	0.34	0.329
NCI-H1793	0.294	0.214	0.191	0.174	0.159		1.05	0.92	0.806	0.981		0.985	1.02	0.589	0.808	0.695	0.352	0.17	0.117	0.18
NCI-H1915	0.866	0.899	0.264	0.074	0.0908	0.459	0.527	0.452	0.475	0.533	0.271	0.254	0.262	0.253	0.246	0.464	0.478	0.295	0.0928	0.0626
NCI-H1944	0.339	0.336	0.295	0.157	0.17	0.564	0.665	0.664	0.571	0.734	0.429	0.438	0.409	0.43	0.404	0.623	0.623	0.237	0.139	0.154
NCI-H1975	0.27	0.284	0.24	0.117	0.135	0.261	0.288	0.274	0.297	0.303	0.769	0.841	0.716	0.811	0.75	0.727	0.593	0.326	0.181	0.158
NCI-H1993	0.981	0.681	0.638	0.664	0.631	0.515	0.566	0.474	0.566	0.644	0.96	1.05	1.24	1.07	1.29	0.665	0.425	0.456	0.489	0.416
NCI-H2009	0.779	0.358	0.179	0.137	0.103	0.971	1.18	1	1.02	1.04	0.652	0.787	0.675	0.686	0.64	0.745	0.689	0.373	0.193	0.152
NCI-H2023	0.218	0.211	0.091	0.0927	0.094	0.229	0.228	0.236	0.253	0.268	0.469	0.57	0.561	0.425	0.491	0.684	0.549	0.154	0.0827	0.0741
NCI-H2085	0.395	0.504	0.371	0.183	0.224	0.855	0.946	0.972	0.915	0.974	0.718	0.77	0.783	0.726	0.83	0.855	0.77	0.469	0.231	0.304
NCI-H2087	1	0.872	0.381	0.192	0.143	0.66	0.653	0.588	0.661	0.63	0.532	0.653	0.548	0.672	0.626	0.731	0.773	0.229	0.0706	0.124
NCI-H2126	0.509	0.48	0.27	0.247	0.253	0.678	0.809	0.617	0.672	0.736	0.903	0.897	0.901	0.855	0.956	0.8	0.832	0.243	0.218	0.177
NCI-H2170	0.342	0.295	0.192	0.184	0.168	0.407	0.26	0.269	0.245	0.283	0.57	0.572	0.666	0.381	0.656	0.787	0.736	0.159	0.144	0.175
